Target: T1, recombinant uPAR (Homo sapiens, UniProt Q03405)
T1 construct: purchased R&D systems
Assay: Competitive ELISA uPAR binding assay (displacement of uPAR from immobilized urokinase)
Conditions: for IC50 / Ki: ELISA assay, competition with urokinase for recombinant uPAR; for Ratio of IC50 (Compound)/IC50 6-ABT-1: relative to control 6-ABT-1
Protocol: The affinity of derivatives are assayed using a competitive ELISA binding assay. The assay involves the immobilization of urokinase, a natural high affinity ligand for uPAR followed by the addition of a fixed concentration of recombinant uPAR protein and increasing concentrations of test compounds which competes with urokinase for binding to the uPA binding site of uPAR. Following several washing steps, the amount of uPAR bound is quantified by a biotinylated anti-uPAR antibody and avidin-HRP and can be fit to a competitive binding model allowing for determination of the uPAR/test compound Kd.
All derivatives were assessed for their ability to hind selectively to recombinant uPAR in vitro using a competitive ELISA binding assay. DMSO stock solutions of each derivative stored at −20° C. were titrated into wells pre-coated with human urokinase (isolated from human urine, ProSpec 1 mg/mL deionized water 18.5 μM) in the presence of uPAR. Selective binding to uPAR by compounds at the uPA binding site competes with uPAR-uPA binding which is required for a positive UV 450 nm absorbance signal. Increasing concentrations of test compound displace increasing amounts of uPAR from uPA which is detected by anti-uPAR/biotin labeled antibodies followed by avidin-HRP.
ELISA assay substantially as described above was used to test certain of the compounds of the present invention for biological characteristics. In addition, the compound 6-ABT-1 as described in WO2017/023994 was tested as a control.

T1 sequence (Q03405 23-305): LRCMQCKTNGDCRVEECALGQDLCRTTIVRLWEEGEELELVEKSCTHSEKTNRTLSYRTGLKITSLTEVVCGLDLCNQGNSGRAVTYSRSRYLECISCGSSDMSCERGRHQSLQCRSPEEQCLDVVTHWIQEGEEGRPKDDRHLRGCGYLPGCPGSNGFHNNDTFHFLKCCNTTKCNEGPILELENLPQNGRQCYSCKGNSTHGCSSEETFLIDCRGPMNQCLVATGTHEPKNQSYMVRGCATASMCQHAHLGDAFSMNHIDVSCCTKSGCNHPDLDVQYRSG

O=C1c2ccccc2-c2onc3c(N4CCC(C(=O)NCCCOCCOCCOCCCNc5ccc([N+](=O)[O-])cc5[N+](=O)[O-])CC4)cc(Nc4ccc(S(=O)(=O)O)cc4S(=O)(=O)O)c1c23 [ARM-U2 derivative 6-ABT-5]
IC50: 0.544 µM | Ki: 0.011 µM | Ratio of IC50 (Compound)/IC50 6-ABT-1: 0.7

O=C1c2ccccc2-c2onc3c(N4CCC(C(=O)NCCCOCCOCCOCCCNc5ccc([N+](=O)[O-])cc5[N+](=O)[O-])CC4)cc(Nc4ccc(S(=O)(=O)O)cc4)c1c23 [ARM-U2 derivative 7-ABT-5]
IC50: 2.36 µM | Ki: 0.0484 µM | Ratio of IC50 (Compound)/IC50 6-ABT-1: 1.15

COc1ccc(Nc2cc(N3CCC(C(=O)NCCCOCCOCCOCCCNc4ccc([N+](=O)[O-])cc4[N+](=O)[O-])CC3)c3noc4c3c2C(=O)c2ccccc2-4)c(S(=O)(=O)O)c1 [ARM-U2 derivative 8-ABT-5]
IC50: 0.54 µM | Ki: 0.011 µM | Ratio of IC50 (Compound)/IC50 6-ABT-1: 0.28

O=C1c2ccccc2-c2onc3c(N4CCC(C(=O)NCCCOCCOCCOCCCNc5ccc([N+](=O)[O-])cc5[N+](=O)[O-])CC4)cc(Nc4ccc(Cl)cc4S(=O)(=O)O)c1c23 [ARM-U2 derivative 9-ABT-5]
IC50: 0.485 µM | Ki: 0.00984 µM | Ratio of IC50 (Compound)/IC50 6-ABT-1: 0.255

COC(=O)c1ccc(Nc2cc(N3CCC(C(=O)NCCCOCCOCCOCCCNc4ccc([N+](=O)[O-])cc4[N+](=O)[O-])CC3)c3noc4c3c2C(=O)c2ccccc2-4)cc1 [ARM-U2 derivative 10-ABT-5]
IC50: > 100 µM | Ki: > 2 µM | Ratio of IC50 (Compound)/IC50 6-ABT-1: 71.4

COC(=O)c1ccc(Nc2cc(N3CCC(C(=O)NCCCOCCOCCOCCCNc4ccc([N+](=O)[O-])cc4[N+](=O)[O-])CC3)c3noc4c3c2C(=O)c2ccccc2-4)c(C(=O)OC)c1 [ARM-U2 derivative 11-ABT-5]
IC50: > 100 µM | Ki: > 2 µM | Ratio of IC50 (Compound)/IC50 6-ABT-1: >56

COC(=O)c1ccc(Nc2cc(N3CCC(C(=O)NCCCOCCOCCOCCCNc4ccc([N+](=O)[O-])cc4[N+](=O)[O-])CC3)c3noc4c3c2C(=O)c2ccccc2-4)c(Cl)c1 [ARM-U2 derivative 12-ABT-5]
IC50: > 100 µM | Ki: > 2 µM | Ratio of IC50 (Compound)/IC50 6-ABT-1: 71.4

COC(=O)c1cc(Nc2cc(N3CCC(C(=O)NCCCOCCOCCOCCCNc4ccc([N+](=O)[O-])cc4[N+](=O)[O-])CC3)c3noc4c3c2C(=O)c2ccccc2-4)nn1C [ARM-U2 derivative 13-ABT-5]
IC50: > 100 µM | Ki: > 2 µM | Ratio of IC50 (Compound)/IC50 6-ABT-1: 71.4

NS(=O)(=O)c1ccc(Nc2cc(N3CCC(C(=O)NCCCOCCOCCOCCCNc4ccc([N+](=O)[O-])cc4[N+](=O)[O-])CC3)c3noc4c3c2C(=O)c2ccccc2-4)cc1 [ARM-U2 derivative 14-ABT-5]
IC50: > 100 µM | Ki: > 2 µM | Ratio of IC50 (Compound)/IC50 6-ABT-1: 71.4

O=C1c2ccccc2-c2onc3c(N4CCC(C(=O)NCCCOCCOCCOCCCNc5ccc([N+](=O)[O-])cc5[N+](=O)[O-])CC4)cc(Nc4cc(C5CC5)no4)c1c23 [ARM-U2 derivative 15-ABT-5]
IC50: 18 µM | Ki: 0.371 µM | Ratio of IC50 (Compound)/IC50 6-ABT-1: 12.85

CCOC(=O)c1cn(C)nc1Nc1cc(N2CCC(C(=O)NCCCOCCOCCOCCCNc3ccc([N+](=O)[O-])cc3[N+](=O)[O-])CC2)c2noc3c2c1C(=O)c1ccccc1-3 [ARM-U2 derivative 16-ABT-5]
IC50: 55.2 µM | Ki: 1.14 µM | Ratio of IC50 (Compound)/IC50 6-ABT-1: 39.41

COC(=O)c1cc(OC)ccc1Nc1cc(N2CCC(C(=O)NCCCOCCOCCOCCCNc3ccc([N+](=O)[O-])cc3[N+](=O)[O-])CC2)c2noc3c2c1C(=O)c1ccccc1-3 [ARM-U2 derivative 17-ABT-5]
IC50: > 100 µM | Ki: > 2 µM | Ratio of IC50 (Compound)/IC50 6-ABT-1: >31

O=C(O)c1cc(Cl)ccc1Nc1cc(N2CCC(C(=O)NCCCOCCOCCOCCCNc3ccc([N+](=O)[O-])cc3[N+](=O)[O-])CC2)c2noc3c2c1C(=O)c1ccccc1-3 [ARM-U2 derivative 18-ABT-5]
IC50: 3.09 µM | Ki: 0.0635 µM | Ratio of IC50 (Compound)/IC50 6-ABT-1: 0.98

O=C1c2ccccc2-c2onc3c(N4CCC(C(=O)NCCCOCCOCCOCCCNc5ccc([N+](=O)[O-])cc5[N+](=O)[O-])CC4)cc(Nc4cc(S(=O)(=O)O)ccc4S(=O)(=O)O)c1c23 [ARM-U2 derivative 19-ABT-5]
IC50: 2.57 µM | Ki: 0.0527 µM | Ratio of IC50 (Compound)/IC50 6-ABT-1: 0.81
